Measured values taken from patent US20260207576A1 (priority 2024, published 2026).

Target: Stx2A1 (Escherichia phage 933W, UniProt P09385)
Assay type: biochemical, E. coli (STEC)
Details: read-out: IC50 against Stx2A1

Sequence of Stx2A1 (P09385 23-272 limits assumed): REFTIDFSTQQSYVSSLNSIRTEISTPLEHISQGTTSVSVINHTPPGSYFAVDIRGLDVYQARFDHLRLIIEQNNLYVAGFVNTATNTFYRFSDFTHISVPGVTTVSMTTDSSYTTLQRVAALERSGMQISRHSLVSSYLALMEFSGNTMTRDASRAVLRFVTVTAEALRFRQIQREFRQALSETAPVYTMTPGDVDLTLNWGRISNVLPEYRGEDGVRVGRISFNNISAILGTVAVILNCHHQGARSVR

CC1(C)Cc2cc(C(=O)O)sc2-c2ccccc21 [RU-NT-206, 5,5-Dimethyl-4,5-dihydronaphtho[1,2-b]thiophene-2-carboxylic acid] gave an IC50 of 83 ± 30 µM.
